According to patent US7618816B2, “Metal-binding therapeutic peptides” (Ontherix, Inc., priority 2005, dated 2009):

What was measured:
[1] = test system: 54 tumor cell lines; assay: Uptake of SA-HRP::MBD peptide complexes, median of the survey; type: cell-based; conditions: median over tumor cell lines
Protocol: (§1) HEK293 kidney cell line and 54 tumor cell lines obtained from the National Cancer Institute and passaged in RPMI1640 cell culture medium supplemented with 10% fetal bovine serum and 10 uM FeCl2. Uptake of streptavidin-horseradish peroxidase (SA-HRP) conjugate and of various SA-HRP::MBD peptide complexes was determined as described (Singh et al. J Biol Chem. 279 (1):477-87 [2004]) using biotinylated MBD9 ([…]) (SEQ ID NO: 10) and MBD21 ([…]) (SEQ ID NO: 4) peptides and SA-HRP. Nuclear and cytoplasmic localization of these proteins was also determined in each case. […] In order to establish the underlying molecular mechanism for this variability, we cross-linked MBD21 peptide to the following cell surface markers at 4 degrees Celsius as previously described (Singh et al. J Biol Chem. 279 (1):477-87 [2004]): transferrin receptor 1, caveolin 1, PCNA, integrins alpha v, 2, 5 and 6, integrins beta 1, 3 and 5. […] Based on the strength of these correlations, it was possible to derive crude predictive formulae for MBD-mediated uptake based on the rate of cross-linking to surface markers. Such predictive formulas could form the basis for a diagnostic procedure to select appropriate targets for MBD-based therapies.

[2] = test system: HOP 92; assay: Uptake of SA-HRP::MBD peptide complexes; type: cell-based, human
Protocol: as §1

[3] = test system: CAKI-1; assay: Uptake of SA-HRP::MBD peptide complexes; type: cell-based, human
Protocol: as §1

[4] = test system: HOP 18; assay: Uptake of SA-HRP::MBD peptide complexes; type: cell-based, human
Protocol: as §1

[5] = test system: NHI-H322M; assay: Uptake of SA-HRP::MBD peptide complexes; type: cell-based, human
Protocol: as §1

[6] = test system: 786-O; assay: Uptake of SA-HRP::MBD peptide complexes; type: cell-based, human
Protocol: as §1

[7] = test system: SK-0V-3; assay: Uptake of SA-HRP::MBD peptide complexes; type: cell-based, human
Protocol: as §1

[8] = test system: LOVO; assay: Uptake of SA-HRP::MBD peptide complexes; type: cell-based, human
Protocol: as §1

[9] = test system: UO-31; assay: Uptake of SA-HRP::MBD peptide complexes; type: cell-based, human
Protocol: as §1

[10] = test system: A549; assay: Uptake of SA-HRP::MBD peptide complexes; type: cell-based, human
Protocol: as §1

[11] = test system: PC-3; assay: Uptake of SA-HRP::MBD peptide complexes; type: cell-based, human
Protocol: as §1

[12] = test system: TK-10; assay: Uptake of SA-HRP::MBD peptide complexes; type: cell-based, human
Protocol: as §1

[13] = test system: OVCAR-3; assay: Uptake of SA-HRP::MBD peptide complexes; type: cell-based, human
Protocol: as §1

[14] = test system: SW-620; assay: Uptake of SA-HRP::MBD peptide complexes; type: cell-based, human
Protocol: as §1

[15] = test system: MCF 7; assay: Uptake of SA-HRP::MBD peptide complexes; type: cell-based, human
Protocol: as §1

[16] = test system: A704; assay: Uptake of SA-HRP::MBD peptide complexes; type: cell-based, human
Protocol: as §1

[17] = test system: A2780; assay: Uptake of SA-HRP::MBD peptide complexes; type: cell-based, human
Protocol: as §1

[18] = test system: OVCAR-4; assay: Uptake of SA-HRP::MBD peptide complexes; type: cell-based, human
Protocol: as §1

[19] = test system: EKVX; assay: Uptake of SA-HRP::MBD peptide complexes; type: cell-based, human
Protocol: as §1

[20] = test system: IGR-OV1; assay: Uptake of SA-HRP::MBD peptide complexes; type: cell-based, human
Protocol: as §1

[21] = test system: NCI-H23; assay: Uptake of SA-HRP::MBD peptide complexes; type: cell-based, human
Protocol: as §1

[22] = test system: SN12C; assay: Uptake of SA-HRP::MBD peptide complexes; type: cell-based, human
Protocol: as §1

[23] = test system: RPMI 8226; assay: Uptake of SA-HRP::MBD peptide complexes; type: cell-based, human
Protocol: as §1

[24] = test system: SHP-77; assay: Uptake of SA-HRP::MBD peptide complexes; type: cell-based, human
Protocol: as §1

[25] = test system: MX-1; assay: Uptake of SA-HRP::MBD peptide complexes; type: cell-based, human
Protocol: as §1

[26] = test system: HS-578T; assay: Uptake of SA-HRP::MBD peptide complexes; type: cell-based, human
Protocol: as §1

[27] = test system: DU-145; assay: Uptake of SA-HRP::MBD peptide complexes; type: cell-based, human
Protocol: as §1

[28] = test system: NCI-H226; assay: Uptake of SA-HRP::MBD peptide complexes; type: cell-based, human
Protocol: as §1

[29] = test system: Lewis Lung; assay: Uptake of SA-HRP::MBD peptide complexes; type: cell-based, human
Protocol: as §1

[30] = test system: COLO 205; assay: Uptake of SA-HRP::MBD peptide complexes; type: cell-based, human
Protocol: as §1

[31] = test system: HCT-116; assay: Uptake of SA-HRP::MBD peptide complexes; type: cell-based, human
Protocol: as §1

[32] = test system: HT-29; assay: Uptake of SA-HRP::MBD peptide complexes; type: cell-based, human
Protocol: as §1

KKGFYKKKKQCRPSKGRKRGFCWNGRK [MBD9]
SA-HRP uptake, Cyt. (ng), Median ([1]; cytoplasmic): 7.4 ng
SA-HRP uptake, Nuc. (ng), Median ([1]; nuclear): 1.8 ng
SA-HRP uptake, Cyt. ([2]; HOP 92, cytoplasmic): 2.5 ng
SA-HRP uptake, Nuc. ([2]; HOP 92, nuclear): 1.6 ng
SA-HRP uptake, Cyt. ([3]; CAKI-1, cytoplasmic): 7.4 ng
SA-HRP uptake, Nuc. ([3]; CAKI-1, nuclear): 1.8 ng
SA-HRP uptake, Cyt. ([4]; HOP 18, cytoplasmic): 16.6 ng
SA-HRP uptake, Nuc. ([4]; HOP 18, nuclear): 8.1 ng
SA-HRP uptake, Cyt. ([5]; cytoplasmic): 5.2 ng
SA-HRP uptake, Nuc. ([5]; nuclear): 5.0 ng
SA-HRP uptake, Cyt. ([6]; cytoplasmic): 2.9 ng
SA-HRP uptake, Nuc. ([6]; nuclear): 3.9 ng
SA-HRP uptake, Cyt. ([7]; SK-0V-3, cytoplasmic): 2.0 ng
SA-HRP uptake, Nuc. ([7]; SK-0V-3, nuclear): 0.4 ng
SA-HRP uptake, Cyt. ([8]; cytoplasmic): 12.6 ng
SA-HRP uptake, Nuc. ([8]; nuclear): 5.4 ng
SA-HRP uptake, Cyt. ([9]; UO-31, cytoplasmic): 4.6 ng
SA-HRP uptake, Nuc. ([9]; UO-31, nuclear): 1.0 ng
SA-HRP uptake, Cyt. ([10]; A549, cytoplasmic): 9.6 ng
SA-HRP uptake, Nuc. ([10]; A549, nuclear): 3.5 ng
SA-HRP uptake, Cyt. ([11]; PC-3, cytoplasmic): 23.2 ng
SA-HRP uptake, Nuc. ([11]; PC-3, nuclear): 8.5 ng
SA-HRP uptake, Cyt. ([12]; TK-10, cytoplasmic): 4.0 ng
SA-HRP uptake, Nuc. ([12]; TK-10, nuclear): 1.3 ng
SA-HRP uptake, Cyt. ([13]; OVCAR-3, cytoplasmic): 2.4 ng
SA-HRP uptake, Nuc. ([13]; OVCAR-3, nuclear): 4.6 ng
SA-HRP uptake, Cyt. ([14]; SW-620, cytoplasmic): 3.2 ng
SA-HRP uptake, Nuc. ([14]; SW-620, nuclear): 0.7 ng
SA-HRP uptake, Cyt. ([15]; MCF 7, cytoplasmic): 26.7 ng
SA-HRP uptake, Nuc. ([15]; MCF 7, nuclear): 19.8 ng
SA-HRP uptake, Cyt. ([16]; A704, cytoplasmic): 10.9 ng
SA-HRP uptake, Nuc. ([16]; A704, nuclear): 1.8 ng
SA-HRP uptake, Cyt. ([17]; A2780, cytoplasmic): 20.7 ng
SA-HRP uptake, Nuc. ([17]; A2780, nuclear): 2.8 ng
SA-HRP uptake, Cyt. ([18]; OVCAR-4, cytoplasmic): 9.9 ng
SA-HRP uptake, Nuc. ([18]; OVCAR-4, nuclear): 2.7 ng
SA-HRP uptake, Cyt. ([19]; cytoplasmic): 7.2 ng
SA-HRP uptake, Nuc. ([19]; nuclear): 4.2 ng
SA-HRP uptake, Cyt. ([20]; IGR-OV1, cytoplasmic): 7.0 ng
SA-HRP uptake, Nuc. ([20]; IGR-OV1, nuclear): 2.6 ng
SA-HRP uptake, Cyt. ([21]; NCI-H23, cytoplasmic): 10.8 ng
SA-HRP uptake, Nuc. ([21]; NCI-H23, nuclear): 6.6 ng
SA-HRP uptake, Cyt. ([22]; cytoplasmic): 10.6 ng
SA-HRP uptake, Nuc. ([22]; nuclear): 3.5 ng
SA-HRP uptake, Cyt. ([23]; RPMI 8226, cytoplasmic): 6.5 ng
SA-HRP uptake, Nuc. ([23]; RPMI 8226, nuclear): 0.0 ng
SA-HRP uptake, Cyt. ([24]; SHP-77, cytoplasmic): 12.8 ng
SA-HRP uptake, Nuc. ([24]; SHP-77, nuclear): 5.9 ng
SA-HRP uptake, Cyt. ([25]; MX-1, cytoplasmic): 10.8 ng
SA-HRP uptake, Nuc. ([25]; MX-1, nuclear): 3.1 ng
SA-HRP uptake, Cyt. ([26]; cytoplasmic): 6.8 ng
SA-HRP uptake, Nuc. ([26]; nuclear): 2.3 ng
SA-HRP uptake, Cyt. ([27]; DU-145, cytoplasmic): 3.1 ng
SA-HRP uptake, Nuc. ([27]; DU-145, nuclear): <0.04 ng
SA-HRP uptake, Cyt. ([28]; NCI-H226, cytoplasmic): 2.6 ng
SA-HRP uptake, Nuc. ([28]; NCI-H226, nuclear): 1.8 ng
SA-HRP uptake, Cyt. ([29]; cytoplasmic): 8.6 ng
SA-HRP uptake, Nuc. ([29]; nuclear): 7.2 ng
SA-HRP uptake, Cyt. ([30]; COLO 205, cytoplasmic): 2.9 ng
SA-HRP uptake, Nuc. ([30]; COLO 205, nuclear): 0.9 ng
SA-HRP uptake, Cyt. ([31]; HCT-116, cytoplasmic): 14.1 ng
SA-HRP uptake, Nuc. ([31]; HCT-116, nuclear): 4.4 ng
SA-HRP uptake, Cyt. ([32]; HT-29, cytoplasmic): 6.1 ng
SA-HRP uptake, Nuc. ([32]; HT-29, nuclear): 7.7 ng
